Laboratory results taken from paper PMC2774621, “Homogenous Fluorescent Assays for Characterizing Small-Molecule Activators of AMP-Activated Protein Kinase (AMPK)” (Current Chemical Genomics, 2008).

Experiments:
[1] = molecular target: T1, AMPK α1β1γ1 (Homo sapiens, UniProt P54619+Q13131); test: FRET-based kinase activity assay (Z'-LYTE S/T23 peptide); assay type: biochemical; conditions: ATP 50 µM, substrate 2 µM
T1 construct: made in house; host or cells: Sf9 insect cells (baculovirus)
Method: Kinase reactions were performed in a 10 µL assay volume at room temperature in 384-well low volume plates (Corning model 3676) using the same assay buffer as the radiometric assay. Inhibitors and activators were prepared as described for the radiometric assays. Assays were performed as follows: 2.5 µL of the inhibitor or activator working stock was added to a 5 µL solution of kinase and substrate, followed by 2.5 µL of ATP to start the assay. All assays were performed in quadruplicate. The final concentration of Z’-LYTE™ S/T23 peptide substrate in the reaction was 2 µM. AMPK α1β1γ1 was used at 79 ng/mL (0.42 nM) in the inhibition experiments and 41 ng/mL (0.22 nM) in the activation experiments, at an ATP concentration of 50 µM. AMPK α2β1γ1 was used at 177 ng/mL (0.92 nM) in the inhibition experiments and 41 ng/mL (0.22 nM) in the activation experiments, at an ATP concentration of 150 µM. After one hour, 5 µL of protease solution was added to a final well volume of 15 µL. After a 1 hour incubation at room temperature the assay plate was read on a Tecan Safire plate reader using an excitation wavelength of 400 nm (12 nm bandpass), and emission wavelengths of 445 nm (12 nm bandpass) and 520 nm (12 nm bandpass). The FRET ratio was calculated as the intensity of the donor signal divided by the intensity of the acceptor signal. The extent of substrate phosphorylation was calculated from the FRET ratio as described previously.
Data analysis and curve-fitting was performed using GraphPad Prism software (GraphPad Software, Inc, San Diego CA).

[2] = molecular target: T1, AMPK α1β1γ1; test: Radiometric kinase assay (SAMS peptide, 32P-ATP); assay type: biochemical; conditions: ATP 35 µM, SAMS 200 µM

T1 sequence (Q13131 whole entry): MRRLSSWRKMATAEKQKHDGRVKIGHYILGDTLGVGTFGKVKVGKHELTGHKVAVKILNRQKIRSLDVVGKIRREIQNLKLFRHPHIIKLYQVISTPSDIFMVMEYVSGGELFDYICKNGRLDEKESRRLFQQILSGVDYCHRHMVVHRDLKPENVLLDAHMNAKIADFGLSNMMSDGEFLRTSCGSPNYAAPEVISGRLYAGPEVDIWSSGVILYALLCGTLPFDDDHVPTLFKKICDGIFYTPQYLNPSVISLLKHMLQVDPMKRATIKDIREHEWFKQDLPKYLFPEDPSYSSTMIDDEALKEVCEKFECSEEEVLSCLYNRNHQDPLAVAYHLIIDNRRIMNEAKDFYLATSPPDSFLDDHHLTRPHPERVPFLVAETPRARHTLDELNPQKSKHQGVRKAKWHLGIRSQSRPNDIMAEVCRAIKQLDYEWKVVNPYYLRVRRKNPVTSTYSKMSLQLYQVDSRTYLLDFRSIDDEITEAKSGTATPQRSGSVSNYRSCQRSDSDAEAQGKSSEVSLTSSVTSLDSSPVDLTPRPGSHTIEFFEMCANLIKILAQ
T1 sequence (Q9Y478 whole entry partner): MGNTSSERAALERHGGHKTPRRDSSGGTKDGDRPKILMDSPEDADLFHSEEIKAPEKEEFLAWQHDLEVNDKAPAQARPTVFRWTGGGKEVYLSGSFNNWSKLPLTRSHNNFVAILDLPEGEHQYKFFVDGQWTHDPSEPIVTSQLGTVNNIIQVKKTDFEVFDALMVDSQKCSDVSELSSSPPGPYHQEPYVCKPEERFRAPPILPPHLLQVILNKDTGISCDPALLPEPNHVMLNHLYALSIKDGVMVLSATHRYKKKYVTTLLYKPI
T1 sequence (P54619 whole entry): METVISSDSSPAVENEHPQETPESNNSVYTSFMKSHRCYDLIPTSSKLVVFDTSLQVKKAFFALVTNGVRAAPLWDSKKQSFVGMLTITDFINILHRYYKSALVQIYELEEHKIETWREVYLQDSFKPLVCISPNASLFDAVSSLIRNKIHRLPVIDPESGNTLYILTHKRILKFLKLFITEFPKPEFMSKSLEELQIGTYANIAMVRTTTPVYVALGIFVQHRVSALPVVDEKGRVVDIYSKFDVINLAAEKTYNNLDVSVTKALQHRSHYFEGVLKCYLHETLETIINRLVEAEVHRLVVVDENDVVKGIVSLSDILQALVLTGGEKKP

Nc1ncnc2c1ncn2[C@@H]1O[C@H](COP(O)(O)=S)[C@@H](O)[C@H]1O [ATMP, adenosine 5′-O-thiomonophosphate]
Max. fold-activation [1]: 3.3 fold
EC50 ([1]; read-out: Activator EC50): 350 nM
Max. fold-activation [2]: 1.7 fold
EC50 ([2]; read-out: Activator EC50): 700 nM
